Measurements published in ChEMBL document CHEMBL4507267 (2021).

Tests used:
[1] = target: Activin receptor type-1 (Homo sapiens) (UniProt Q04771); details: Compound concentration 1000.0 nM
[2] = test system: ALK tyrosine kinase receptor (Homo sapiens), Q9UM73 [L1196M]; details: Compound concentration 1000.0 nM
[3] = target: Tyrosine-protein kinase receptor UFO (Homo sapiens) (UniProt P30530); details: Compound concentration 1000.0 nM
[4] = target: Cytoplasmic tyrosine-protein kinase BMX (Homo sapiens) (UniProt P51813); details: Compound concentration 1000.0 nM
[5] = target: Peripheral plasma membrane protein CASK (Homo sapiens) (UniProt O14936); details: Compound concentration 1000.0 nM
[6] = target: Cyclin-dependent kinase 11B (Homo sapiens) (UniProt P21127); details: Compound concentration 1000.0 nM
[7] = target: Casein kinase I isoform alpha (Homo sapiens) (UniProt P48729); details: Compound concentration 1000.0 nM
[8] = target: Fibroblast growth factor receptor 4 (Homo sapiens) (UniProt P22455); details: Compound concentration 1000.0 nM
[9] = target: Tyrosine-protein kinase Fyn (Homo sapiens) (UniProt P06241); details: Compound concentration 1000.0 nM
[10] = target: Rhodopsin kinase GRK1 (Homo sapiens) (UniProt Q15835); details: Compound concentration 1000.0 nM
[11] = target: Homeodomain-interacting protein kinase 3 (Homo sapiens) (UniProt Q9H422); details: Compound concentration 1000.0 nM
[12] = target: Insulin-like growth factor 1 receptor (Homo sapiens) (UniProt P08069); details: Compound concentration 1000.0 nM
[13] = target: Inhibitor of nuclear factor kappa-B kinase subunit alpha (Homo sapiens) (UniProt O15111); details: Compound concentration 1000.0 nM
[14] = target: Tyrosine-protein kinase ITK/TSK (Homo sapiens) (UniProt Q08881); details: Compound concentration 1000.0 nM
Tyrosine-protein kinase ITK/TSK (Homo sapiens), sequence (Q08881 whole entry): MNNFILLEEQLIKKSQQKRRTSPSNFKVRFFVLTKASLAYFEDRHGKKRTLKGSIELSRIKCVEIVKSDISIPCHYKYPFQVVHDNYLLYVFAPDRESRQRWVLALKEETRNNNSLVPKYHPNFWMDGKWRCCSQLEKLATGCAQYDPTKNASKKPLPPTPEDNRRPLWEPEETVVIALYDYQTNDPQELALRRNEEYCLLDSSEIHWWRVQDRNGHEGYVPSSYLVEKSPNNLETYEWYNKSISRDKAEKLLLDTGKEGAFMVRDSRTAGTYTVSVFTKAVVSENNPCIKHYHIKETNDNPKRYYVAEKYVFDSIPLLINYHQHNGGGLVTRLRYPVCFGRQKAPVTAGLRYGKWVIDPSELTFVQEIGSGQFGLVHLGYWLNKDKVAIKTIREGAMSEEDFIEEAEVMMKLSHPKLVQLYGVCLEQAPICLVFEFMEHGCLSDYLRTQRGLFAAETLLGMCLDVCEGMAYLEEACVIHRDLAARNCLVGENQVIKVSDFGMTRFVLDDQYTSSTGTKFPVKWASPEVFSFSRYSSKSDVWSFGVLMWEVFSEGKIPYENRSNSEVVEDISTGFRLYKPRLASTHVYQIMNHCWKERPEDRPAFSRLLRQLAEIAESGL

[15] = test system: Mast/stem cell growth factor receptor Kit (Homo sapiens), P10721 [L576P]; details: Compound concentration 1000.0 nM
[16] = test system: Mast/stem cell growth factor receptor Kit (Homo sapiens), P10721 [V559D]; details: Compound concentration 1000.0 nM
[17] = target: Mitogen-activated protein kinase kinase kinase 13 (Homo sapiens) (UniProt O43283); details: Compound concentration 1000.0 nM
[18] = target: Mitogen-activated protein kinase kinase kinase 15 (Homo sapiens) (UniProt Q6ZN16); details: Compound concentration 1000.0 nM
[19] = target: Serine/threonine-protein kinase MRCK beta (Homo sapiens) (UniProt Q9Y5S2); details: Compound concentration 1000.0 nM
[20] = target: Muscle, skeletal receptor tyrosine-protein kinase (Homo sapiens) (UniProt O15146); details: Compound concentration 1000.0 nM
[21] = target: Myosin light chain kinase 2, skeletal/cardiac muscle (Homo sapiens) (UniProt Q9H1R3); details: Compound concentration 1000.0 nM
[22] = target: Phosphatidylinositol 4,5-bisphosphate 3-kinase catalytic subunit alpha isoform (Homo sapiens) (UniProt P42336); details: Compound concentration 1000.0 nM
Phosphatidylinositol 4,5-bisphosphate 3-kinase catalytic subunit alpha isoform (Homo sapiens), sequence (P42336 whole entry, canonical isoform): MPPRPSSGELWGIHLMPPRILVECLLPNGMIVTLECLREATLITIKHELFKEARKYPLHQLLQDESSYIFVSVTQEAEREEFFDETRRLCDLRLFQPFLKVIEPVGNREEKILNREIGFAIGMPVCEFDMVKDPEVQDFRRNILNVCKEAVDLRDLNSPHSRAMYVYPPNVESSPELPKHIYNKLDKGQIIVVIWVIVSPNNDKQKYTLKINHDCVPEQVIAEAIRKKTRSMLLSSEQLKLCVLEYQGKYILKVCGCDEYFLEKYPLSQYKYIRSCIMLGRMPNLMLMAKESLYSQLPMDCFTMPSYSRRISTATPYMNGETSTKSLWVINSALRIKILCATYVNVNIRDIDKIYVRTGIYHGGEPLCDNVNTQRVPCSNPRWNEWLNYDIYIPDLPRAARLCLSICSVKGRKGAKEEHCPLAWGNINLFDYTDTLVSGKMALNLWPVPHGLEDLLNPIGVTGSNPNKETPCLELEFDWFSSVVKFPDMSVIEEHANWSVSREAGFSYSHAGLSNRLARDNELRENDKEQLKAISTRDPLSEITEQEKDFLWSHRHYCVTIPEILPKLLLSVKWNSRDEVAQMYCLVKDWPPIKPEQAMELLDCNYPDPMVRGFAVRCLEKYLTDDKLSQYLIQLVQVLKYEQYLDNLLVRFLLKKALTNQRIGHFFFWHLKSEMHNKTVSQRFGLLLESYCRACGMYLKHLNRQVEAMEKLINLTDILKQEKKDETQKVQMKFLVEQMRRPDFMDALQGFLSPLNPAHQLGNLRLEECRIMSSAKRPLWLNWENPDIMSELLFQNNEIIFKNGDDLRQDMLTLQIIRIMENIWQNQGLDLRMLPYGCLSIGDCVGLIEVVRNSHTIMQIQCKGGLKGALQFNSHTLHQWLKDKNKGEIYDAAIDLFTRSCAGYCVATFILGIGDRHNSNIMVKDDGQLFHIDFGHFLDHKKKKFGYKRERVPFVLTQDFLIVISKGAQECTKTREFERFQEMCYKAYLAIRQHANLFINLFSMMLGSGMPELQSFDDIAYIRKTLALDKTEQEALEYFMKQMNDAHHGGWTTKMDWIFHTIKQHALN

[23] = test system: Phosphatidylinositol 4,5-bisphosphate 3-kinase catalytic subunit alpha isoform (Homo sapiens), P42336 [E545A]; details: Compound concentration 1000.0 nM
[24] = test system: Phosphatidylinositol 4,5-bisphosphate 3-kinase catalytic subunit alpha isoform (Homo sapiens), P42336 [I800L]; details: Compound concentration 1000.0 nM
[25] = target: 1-phosphatidylinositol 3-phosphate 5-kinase (Homo sapiens) (UniProt Q9Y2I7); details: Compound concentration 1000.0 nM
[26] = target: Phosphatidylinositol 5-phosphate 4-kinase type-2 beta (Homo sapiens) (UniProt P78356); details: Compound concentration 1000.0 nM
[27] = target: Protein kinase C eta type (Homo sapiens) (UniProt P24723); details: Compound concentration 1000.0 nM
[28] = target: Interferon-induced, double-stranded RNA-activated protein kinase (Homo sapiens) (UniProt P19525); details: Compound concentration 1000.0 nM
[29] = test system: Proto-oncogene tyrosine-protein kinase receptor Ret (Homo sapiens), P07949 [V804L]; details: Compound concentration 1000.0 nM
Proto-oncogene tyrosine-protein kinase receptor Ret (Homo sapiens), P07949 [V804L], sequence (P07949 whole entry V804L): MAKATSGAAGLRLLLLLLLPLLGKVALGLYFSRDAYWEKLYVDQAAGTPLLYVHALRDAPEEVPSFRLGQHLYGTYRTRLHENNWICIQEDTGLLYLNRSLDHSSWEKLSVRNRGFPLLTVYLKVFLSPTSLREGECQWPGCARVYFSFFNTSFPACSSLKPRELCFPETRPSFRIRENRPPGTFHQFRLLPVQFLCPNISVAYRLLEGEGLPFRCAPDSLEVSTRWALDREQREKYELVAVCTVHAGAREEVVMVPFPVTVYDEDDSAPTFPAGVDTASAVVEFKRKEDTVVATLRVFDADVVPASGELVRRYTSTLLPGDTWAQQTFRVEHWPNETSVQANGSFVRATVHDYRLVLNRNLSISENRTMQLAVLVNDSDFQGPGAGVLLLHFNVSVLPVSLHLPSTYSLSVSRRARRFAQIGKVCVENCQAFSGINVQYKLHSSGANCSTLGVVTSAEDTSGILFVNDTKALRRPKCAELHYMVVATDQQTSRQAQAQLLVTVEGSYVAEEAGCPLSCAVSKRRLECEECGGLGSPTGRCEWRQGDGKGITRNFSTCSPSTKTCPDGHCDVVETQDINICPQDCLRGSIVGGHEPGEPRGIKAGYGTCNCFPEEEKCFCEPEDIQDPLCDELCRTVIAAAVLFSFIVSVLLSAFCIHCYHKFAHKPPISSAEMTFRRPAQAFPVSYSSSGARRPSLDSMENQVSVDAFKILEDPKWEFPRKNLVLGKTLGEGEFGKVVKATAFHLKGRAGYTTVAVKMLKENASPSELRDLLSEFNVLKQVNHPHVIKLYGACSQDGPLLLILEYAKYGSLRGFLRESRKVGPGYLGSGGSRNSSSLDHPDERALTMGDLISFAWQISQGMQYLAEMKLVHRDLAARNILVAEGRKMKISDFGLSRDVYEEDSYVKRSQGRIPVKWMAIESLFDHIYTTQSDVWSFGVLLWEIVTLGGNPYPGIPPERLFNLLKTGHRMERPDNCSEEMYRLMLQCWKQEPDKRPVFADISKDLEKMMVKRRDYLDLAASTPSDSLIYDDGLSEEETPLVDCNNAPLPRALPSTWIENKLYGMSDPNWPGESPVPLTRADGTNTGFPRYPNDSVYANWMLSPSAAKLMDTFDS

[30] = target: Ribosomal protein S6 kinase alpha-4 (Homo sapiens) (UniProt O75676); details: Compound concentration 1000.0 nM
[31] = target: Ribosomal protein S6 kinase alpha-3 (Homo sapiens) (UniProt P51812); details: Compound concentration 1000.0 nM
[32] = target: Serine/threonine-protein kinase SIK2 (Homo sapiens) (UniProt Q9H0K1); details: Compound concentration 1000.0 nM
[33] = target: SNF-related serine/threonine-protein kinase (Homo sapiens) (UniProt Q9NRH2); details: Compound concentration 1000.0 nM
[34] = target: Serine/threonine-protein kinase TBK1 (Homo sapiens) (UniProt Q9UHD2); details: Compound concentration 1000.0 nM
[35] = target: Testis-specific serine/threonine-protein kinase 3 (Homo sapiens) (UniProt Q96PN8); details: Compound concentration 1000.0 nM
Testis-specific serine/threonine-protein kinase 3 (Homo sapiens), sequence (Q96PN8 whole entry): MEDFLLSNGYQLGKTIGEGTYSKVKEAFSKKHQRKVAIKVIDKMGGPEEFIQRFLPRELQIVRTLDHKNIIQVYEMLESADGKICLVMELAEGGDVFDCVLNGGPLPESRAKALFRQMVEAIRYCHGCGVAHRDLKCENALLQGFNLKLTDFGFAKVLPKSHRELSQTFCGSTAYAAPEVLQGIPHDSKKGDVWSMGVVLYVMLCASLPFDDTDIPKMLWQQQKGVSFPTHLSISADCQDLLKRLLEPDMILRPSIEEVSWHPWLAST

[36] = target: Serine/threonine-protein kinase ULK3 (Homo sapiens) (UniProt Q6PHR2); details: Compound concentration 1000.0 nM
[37] = target: Wee1-like protein kinase (Homo sapiens) (UniProt P30291); details: Compound concentration 1000.0 nM
Wee1-like protein kinase (Homo sapiens), sequence (P30291 whole entry, looked up): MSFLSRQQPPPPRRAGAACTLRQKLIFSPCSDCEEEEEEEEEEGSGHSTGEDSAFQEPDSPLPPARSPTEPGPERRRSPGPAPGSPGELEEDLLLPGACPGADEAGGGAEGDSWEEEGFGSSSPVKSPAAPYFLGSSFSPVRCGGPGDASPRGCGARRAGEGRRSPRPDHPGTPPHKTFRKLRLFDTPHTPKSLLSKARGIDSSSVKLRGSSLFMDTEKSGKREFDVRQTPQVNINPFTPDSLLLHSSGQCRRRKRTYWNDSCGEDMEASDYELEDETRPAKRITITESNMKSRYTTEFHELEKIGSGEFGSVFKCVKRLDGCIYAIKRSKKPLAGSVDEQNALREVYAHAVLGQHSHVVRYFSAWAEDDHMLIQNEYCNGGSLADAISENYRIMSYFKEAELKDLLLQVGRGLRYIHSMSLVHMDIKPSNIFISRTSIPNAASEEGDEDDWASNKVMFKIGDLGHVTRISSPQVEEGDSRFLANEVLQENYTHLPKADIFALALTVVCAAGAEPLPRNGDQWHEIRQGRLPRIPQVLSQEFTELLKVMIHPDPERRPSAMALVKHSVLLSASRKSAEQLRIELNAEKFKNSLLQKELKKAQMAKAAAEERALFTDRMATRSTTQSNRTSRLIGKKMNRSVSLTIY

[38] = target: Serine/threonine-protein kinase 25 (Homo sapiens) (UniProt O00506); details: Compound concentration 1000.0 nM
[39] = target: Mitogen-activated protein kinase kinase kinase 19 (Homo sapiens) (UniProt Q56UN5); details: Compound concentration 1000.0 nM
[40] = target: 5-hydroxytryptamine receptor 2C (Homo sapiens) (UniProt P28335); details: Compound concentration 10.0 uM
[41] = target: Sodium-dependent serotonin transporter (Homo sapiens) (UniProt P31645); details: Compound concentration 10.0 uM
[42] = target: Sodium-dependent dopamine transporter (Homo sapiens) (UniProt Q01959); details: Compound concentration 10.0 uM
Sodium-dependent dopamine transporter (Homo sapiens), sequence (Q01959 whole entry): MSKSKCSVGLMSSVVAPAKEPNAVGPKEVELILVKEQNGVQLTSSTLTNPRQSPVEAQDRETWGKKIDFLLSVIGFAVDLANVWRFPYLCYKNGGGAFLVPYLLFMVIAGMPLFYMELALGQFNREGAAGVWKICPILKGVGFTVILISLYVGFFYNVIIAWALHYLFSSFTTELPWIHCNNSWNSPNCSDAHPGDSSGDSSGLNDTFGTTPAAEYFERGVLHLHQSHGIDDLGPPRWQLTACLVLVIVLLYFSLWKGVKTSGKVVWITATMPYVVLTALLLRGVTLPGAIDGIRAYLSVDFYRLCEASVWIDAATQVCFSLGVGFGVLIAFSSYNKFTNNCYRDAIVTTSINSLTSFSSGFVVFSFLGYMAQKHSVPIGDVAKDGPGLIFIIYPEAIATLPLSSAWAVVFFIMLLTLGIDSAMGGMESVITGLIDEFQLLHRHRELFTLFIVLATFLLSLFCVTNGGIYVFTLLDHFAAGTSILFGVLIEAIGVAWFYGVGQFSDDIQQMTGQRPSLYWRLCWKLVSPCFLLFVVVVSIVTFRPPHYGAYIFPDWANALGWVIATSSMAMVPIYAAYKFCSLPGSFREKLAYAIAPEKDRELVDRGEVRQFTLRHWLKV

[43] = target: Kappa-type opioid receptor (Homo sapiens) (UniProt P41145); details: Compound concentration 10.0 uM
[44] = target: Alpha-2A adrenergic receptor (Homo sapiens) (UniProt P08913); details: Compound concentration 10.0 uM
[45] = target: Muscarinic acetylcholine receptor M4 (Homo sapiens) (UniProt P08173); details: Compound concentration 10.0 uM
Muscarinic acetylcholine receptor M4 (Homo sapiens), sequence (P08173 whole entry): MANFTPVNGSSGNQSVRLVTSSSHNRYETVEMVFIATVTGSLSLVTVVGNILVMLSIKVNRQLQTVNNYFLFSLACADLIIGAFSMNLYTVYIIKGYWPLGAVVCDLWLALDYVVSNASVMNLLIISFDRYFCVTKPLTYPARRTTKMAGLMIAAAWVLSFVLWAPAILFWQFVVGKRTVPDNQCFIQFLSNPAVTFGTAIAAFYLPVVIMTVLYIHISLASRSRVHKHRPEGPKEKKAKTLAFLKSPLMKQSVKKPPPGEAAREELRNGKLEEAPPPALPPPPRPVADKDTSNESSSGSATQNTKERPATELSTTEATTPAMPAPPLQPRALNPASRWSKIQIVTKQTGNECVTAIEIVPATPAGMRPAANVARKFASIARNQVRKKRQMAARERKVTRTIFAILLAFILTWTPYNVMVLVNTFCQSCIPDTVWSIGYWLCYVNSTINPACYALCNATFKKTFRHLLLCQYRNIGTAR

Cc1c(NC(=O)c2cc(C(N)=O)nc3cc(F)ccc23)c(C(F)(F)F)nn1Cc1ccc(C(C)(C)C)cc1 [BAY-588]
inactive: residual activity [1] 100% | residual activity [2] 83% | residual activity [3] 100% | residual activity [4] 88% | residual activity [5] 100% | residual activity [6] 100% | residual activity [7] 94% | residual activity [8] 100% | residual activity [9] 100% | residual activity [10] 83% | residual activity [11] 100% | residual activity [12] 100% | residual activity [13] 100% | residual activity [14] 95% | residual activity [15] 95% | residual activity [16] 95% | residual activity [17] 100% | residual activity [18] 95% | residual activity [19] 96% | residual activity [20] 97% | residual activity [21] 87% | residual activity [22] 100% | residual activity [23] 100% | residual activity [24] 100% | residual activity [25] 100% | residual activity [26] 91% | residual activity [27] 97% | residual activity [28] 100% | residual activity [29] 83% | residual activity [30] 100% | residual activity [31] 100% | residual activity [32] 100% | residual activity [33] 93% | residual activity [34] 95% | residual activity [35] 100% | residual activity [36] 97% | residual activity [37] 100% | residual activity [38] 100% | residual activity [39] 85% | inhibition [40] -2.42% | inhibition [41] -3.13% | inhibition [42] 14.7% | inhibition [43] 22.1% | inhibition [44] 23.1% | inhibition [45] 8.69%

Cc1c(NC(=O)c2cc(C(N)=O)nc3cc(F)ccc23)c(C(F)(F)F)nn1Cc1ccc(C#N)cc1 [BAY-876]
inactive: residual activity [1] 87% | residual activity [2] 83% | residual activity [3] 100% | residual activity [4] 85% | residual activity [5] 71% | residual activity [6] 94% | residual activity [7] 72% | residual activity [8] 100% | residual activity [9] 94% | residual activity [10] 87% | residual activity [11] 85% | residual activity [12] 100% | residual activity [13] 65% | residual activity [14] 78% | residual activity [15] 92% | residual activity [16] 100% | residual activity [17] 84% | residual activity [18] 100% | residual activity [19] 100% | residual activity [20] 95% | residual activity [21] 90% | residual activity [22] 100% | residual activity [23] 81% | residual activity [24] 78% | residual activity [25] 92% | residual activity [26] 88% | residual activity [27] 95% | residual activity [28] 100% | residual activity [29] 100% | residual activity [30] 85% | residual activity [31] 82% | residual activity [32] 100% | residual activity [33] 90% | residual activity [34] 70% | residual activity [35] 82% | residual activity [36] 74% | residual activity [37] 94% | residual activity [38] 100% | residual activity [39] 72% | inhibition [40] 6.9% | inhibition [41] 0.483% | inhibition [42] 8.22% | inhibition [43] -6.9% | inhibition [44] 0.0425% | inhibition [45] -4.15%
